Laboratory results taken from patent US12391695B2, “PRMT5 inhibitors” (Lupin Limited, priority 2019, dated 2025).

Legend:
Z-138 cells = assay: Anti-cancer assay (Z-138), cell viability by CellTiterGlo; format: cell-based; settings: Homo sapiens, 96 h treatment, read-out: IC50 (activity range), inhibition of cell viability
Experimental: Z-138 cells were seeded at a density of 2000-3000 cells per well in culture media (IMDM+10% FBS). PANC-1 (ATCC, CRL-1469™) and MIA PaCa-2 (ATCC, CRL-1420™) cells were seeded at a density of 200-300 cells per well in culture media (DMEM+10% FBS). Cells were seeded in opaque, flat bottomed tissue culture grade 96-well plates and Z-138 cells (suspension) were seeded and treated on the same day with various concentrations of test compounds. PANC-1 and MIA PaCa-2 cells, being adherent, were kept for overnight settlement at standard cell culture conditions (37° C., 5% CO2). On the following day, cells were treated with various concentrations of test compounds. Cells were treated with test compounds for a period of 96 h, 7 days and 10 days, for Z-138 cells, PANC-1 cells and MIA PaCa-2 cells, respectively. Cell viability was assessed using CellTiterGlo™ (Promega, USA) as per manufacturer's instructions. Relative Light Units (RLU) were read in Synergy™ 2 reader (Biotek, USA). The assay measures cellular ATP as an indicator of cell viability. RLU is proportional to the number of viable cells in the respective well. % inhibition of cell viability was calculated relative to the vehicle control samples containing media with 0.1% DMSO alone as per the formula below. (Avg. of Untreated Control−Avg. of Test)×100 Avg. Of Untreated Control
The IC50 values of individual compounds were calculated with Non Linear Regression Analysis using Graph Pad Prism (Graph Pad software, Inc, USA). • Anti-Cancer Assay (Z-138)

PRMT5:MEP50 = PRMT5:MEP50 (Homo sapiens, UniProt O14744); assay: PRMT5 biochemical assay (HTRF, biotinylated H4R3 substrate), protocols 1 and 2; settings: 1 μM SAM, 50 nM biotinylated H4R3, protocol 1 or 2 not given, read-out: IC50 (activity range), inhibition of PRMT5
Experimental: (§1) Inhibitory effect of compounds on PRMT5 was assessed using HTRF detection technology in biochemical assay. Biotinylated H4R3 (residues 1-21) was used as a substrate. Compounds were pre-incubated with 15-25 ng PRMT5:MEP50 per well of a 384-well plate for 30 min at room temperature in the assay buffer containing 20 mM Bicine, pH 7.6, 25 mM NaCl, 2 mM DTT, 0.01% Chicken albumin and 0.01% Tween-20. Reaction was initiated by adding 1 μM of SAM and 50 nM biotinylated H4R3. Total assay volume was 15 μL. Reaction was continued for 120 min at room temperature. Then detection solution containing Streptavidin-Eu cryptate, anti-rabbit IgG-XL-665, Histone H4R3 Dimethyl Symmetric (H4R3me2s) Polyclonal Antibody, all prepared in HTRF detection buffer was added and further incubated for 30 min at room temperature. HTRF signal was recorded in PHERAStar microplate reader. Ratio of signal obtained at 665 nm and 620 nm was used to compute the percent inhibition of compound as follows % Inhibition=100−((Test Ratio−Negative control Ratio)/(Positive control Ratio−Negative control Ratio)*100) where Positive control=PRMT5+SAM+H4R3 Negative control=PRMT5+H4R3 Biochemical Assay Protocol 2
as §1, with “2.5” for “15-25”, “4 h” for “120 min”, “control=PRMT5+H4R3” for “control=PRMT5+H4R3 Biochemical Assay Protocol 2”

SDMA = SDMA inhibition assay in Z-138 cells (ELISA with anti-SDMA antibody); format: cell-based; settings: Homo sapiens, Z-138, 48 h, 48 h treatment, read-out: IC50 (activity range), SDMA inhibition
Experimental: Z-138 cells (ATCC, CRL-3001™) were seeded at a density of 1 million cells/well in transparent, flat bottomed tissue culture grade 48-well plates. Cells were treated with various concentration of test compounds for a period of 48 h. Cell lysate was prepared using 1× CST Lysis buffer (Cell Signaling Technology, USA) and 500 ng/well/50 μL of lysate in pH 9.6 carbonate buffer was coated on 96-well Maxisorb plate and incubated overnight at 4° C. The plate was washed twice in 1×PBS containing 0.05% Tween 20 and blocked in 1% BSA for 1 h at ambient temperature. Further, the plate was incubated first with primary antibody (anti-SDMA antibody; CST #13222s) at ambient temperature for 2 h and then with HRP-conjugated secondary antibody at ambient temperature for 1 h with 2 intermittent washing steps in between.
For luminiscence based detection, HRP substrates (substrate A+substrate B in a 1:1 proportion) were added followed by luminiscence reading after 30 min in Synergy™ 2 reader (Biotek, USA).
For absorbance based detection, TMB substrate was added followed by addition of STOP solution (2N H2SO4) post colour development and absorbance (excitation 450 nm and emission 540 nm) was measured in Synergy™ 2 reader (Biotek, USA).
% inhibition of SDMA was calculated relative to the vehicle control samples containing media with 0.1% DMSO alone as per the formula below. (Avg. of Untreated Control−Avg. of Test)×100 Avg. Of Untreated Control
The IC50 values of individual compounds were calculated with Non Linear Regression Analysis using Graph Pad Prism (Graph Pad software, Inc, USA).

Sequence of PRMT5:MEP50 (O14744 whole entry, the tested form may be a part): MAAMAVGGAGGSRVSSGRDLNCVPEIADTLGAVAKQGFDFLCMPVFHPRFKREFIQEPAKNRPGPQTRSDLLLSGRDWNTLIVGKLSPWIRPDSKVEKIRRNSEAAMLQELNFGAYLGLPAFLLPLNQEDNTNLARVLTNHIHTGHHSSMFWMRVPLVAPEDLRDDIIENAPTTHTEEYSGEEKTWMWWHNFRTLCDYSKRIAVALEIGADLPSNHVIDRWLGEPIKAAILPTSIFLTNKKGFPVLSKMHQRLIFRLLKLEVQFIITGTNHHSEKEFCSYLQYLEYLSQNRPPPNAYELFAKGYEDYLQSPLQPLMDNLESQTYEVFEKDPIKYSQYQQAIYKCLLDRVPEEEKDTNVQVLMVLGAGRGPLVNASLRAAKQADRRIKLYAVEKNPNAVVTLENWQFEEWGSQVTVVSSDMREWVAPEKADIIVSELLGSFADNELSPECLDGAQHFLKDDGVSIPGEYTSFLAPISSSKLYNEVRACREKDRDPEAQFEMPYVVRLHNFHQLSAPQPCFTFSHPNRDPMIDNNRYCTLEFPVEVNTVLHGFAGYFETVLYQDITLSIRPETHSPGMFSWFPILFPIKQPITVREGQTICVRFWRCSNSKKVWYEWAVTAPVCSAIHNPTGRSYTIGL
Sequence of PRMT5:MEP50 (Q9BQA1 whole entry partner, the tested form may be a part): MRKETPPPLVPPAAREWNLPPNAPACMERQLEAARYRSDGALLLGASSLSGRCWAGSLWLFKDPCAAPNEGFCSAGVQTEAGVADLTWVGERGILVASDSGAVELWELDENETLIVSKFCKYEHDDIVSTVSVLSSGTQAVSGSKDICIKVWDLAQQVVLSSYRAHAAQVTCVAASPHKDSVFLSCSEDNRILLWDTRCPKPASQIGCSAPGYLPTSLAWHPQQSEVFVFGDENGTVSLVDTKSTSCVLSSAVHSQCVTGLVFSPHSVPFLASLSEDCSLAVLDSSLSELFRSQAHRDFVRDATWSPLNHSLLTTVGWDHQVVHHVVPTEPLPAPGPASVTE

Cc1cc2c(c(CCC3=C[C@@H](n4ccc5c(N)ncnc54)[C@H](O)[C@@H]3O)c1)CNCC2 [Compound 8, (1S,2R,5R)-5-(4-amino-7H-pyrrolo[2,3-d]pyrimidin-7-yl)-3-(2-(6-methyl-1,2,3,4-tetrahydroisoquinolin-8-yl)ethyl)cyclopent-3-ene-1,2-diol]
IC50 (Z-138 cells): > 1 nM
IC50 (PRMT5:MEP50): 0.25 to 0.95 nM
IC50 (SDMA): 1.1 to 50 nM

CC1CNCc2c(CCC3=C[C@@H](n4ccc5c(N)ncnc54)[C@H](O)[C@@H]3O)cc(C(F)F)c(F)c21 (single isomer, unassigned) [Compound 22A]
IC50 (Z-138 cells): > 1 nM
IC50 (PRMT5:MEP50): 0.25 to 0.95 nM
IC50 (SDMA): 1.1 to 50 nM
